According to PubChem BioAssay AID330 (DTP/NCI, 2004):
Several values for one entry are separate records, joined by “and”; a condition that tells them apart may be missing. Identical values can stand only once. Toxic doses and inconclusive results are not listed. Rule for the calls: active = survival T/C of 150% or more; inactive = T/C below 125% in these data.

Test system: P388 leukemia ip, CD2F1 mice, survival T/C
Assay: NCI In Vivo Anticancer Drug Screen. Data for tumor model P388 Leukemia (intraperitoneal) in CD2F1 (CDF1) mice
Conditions: endpoint: median survival time, higher = longer survival
How it was run: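 Mice carrying the transplanted tumor received test compound or vehicle. Survival was recorded in each group, and the value is the treated-group measurement divided by that of the vehicle-treated control group.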

[1] = dose: 100.0 mg/kg/injection, schedule: Q04DX003 (ip), vehicle: Klucel (hydroxypropylcellulose) (HPC)
[2] = dose: 200.0 mg/kg/injection, schedule: Q04DX003 (ip), vehicle: Klucel (hydroxypropylcellulose) (HPC)
[3] = dose: 400.0 mg/kg/injection, schedule: Q04DX003 (ip), vehicle: Klucel (hydroxypropylcellulose) (HPC)
[4] = dose: 60.0 mg/kg/injection, schedule: Q01DX005 (ip), vehicle: saline
[5] = dose: 120.0 mg/kg/injection, schedule: Q01DX005 (ip), vehicle: saline
[6] = dose: 240.0 mg/kg/injection, schedule: Q01DX005 (ip), vehicle: saline
[7] = dose: 50.0 mg/kg/injection, schedule: Q04DX003 (ip), vehicle: saline with Tween-80
[8] = dose: 100.0 mg/kg/injection, schedule: Q04DX003 (ip), vehicle: saline with Tween-80
[9] = dose: 200.0 mg/kg/injection, schedule: Q04DX003 (ip), vehicle: saline with Tween-80
[10] = dose: 400.0 mg/kg/injection, schedule: Q04DX003 (ip), vehicle: saline with Tween-80
[11] = dose: 60.0 mg/kg/injection, schedule: Q01DX005 (ip), vehicle: saline with Tween-80
[12] = dose: 120.0 mg/kg/injection, schedule: Q01DX005 (ip), vehicle: saline with Tween-80
[13] = dose: 240.0 mg/kg/injection, schedule: Q01DX005 (ip), vehicle: saline with Tween-80
[14] = dose: 50.0 mg/kg/injection, schedule: Q01DX005 (ip), vehicle: saline with Tween-80
[15] = dose: 100.0 mg/kg/injection, schedule: Q01DX005 (ip), vehicle: saline with Tween-80
[16] = dose: 200.0 mg/kg/injection, schedule: Q01DX005 (ip), vehicle: saline with Tween-80
[17] = dose: 50.0 mg/kg/injection, schedule: Q01DX005 (ip), vehicle: saline
[18] = dose: 100.0 mg/kg/injection, schedule: Q01DX005 (ip), vehicle: saline
[19] = dose: 200.0 mg/kg/injection, schedule: Q01DX005 (ip), vehicle: saline
[20] = dose: 50.0 mg/kg/injection, schedule: Q01DX009 (ip), vehicle: Klucel (hydroxypropylcellulose) (HPC)
[21] = dose: 100.0 mg/kg/injection, schedule: Q01DX009 (ip), vehicle: Klucel (hydroxypropylcellulose) (HPC)
[22] = dose: 50.0 mg/kg/injection, schedule: Q01DX009 (ip), vehicle: saline with Tween-80

Measured: T/C

CC(C)(C)C1(C#N)C(=O)N(c2ccc(N3C(=O)C(C#N)(C(C)(C)C)C34c3ccccc3-c3ccccc34)cc2)C12c1ccccc1-c1ccccc12 (stereo unspecified)
inactive: [1] 93 % of control | [2] 93 % of control | [3] 91 % of control

CN(C)CCC(=O)C(=Cc1ccccc1Cl)C(=O)CCN(C)C
inactive: [4] 105 % of control | [5] 106 % of control | [6] 105 % of control

Cc1ccc(S(=O)(=O)C(Cl)Cl)cc1
inactive: [7] 100 % of control and 90 % of control and 93 % of control | [8] 111 % of control and 118 % of control and 93 % of control | [9] 104 % of control and 93 % of control | [10] 102 % of control

CON1C(=O)C(c2cccs2)=C2SCC=C21
inactive: dose: 15.0 mg/kg/injection, schedule: Q01DX005 (ip), vehicle: saline with Tween-80 107 % of control | dose: 30.0 mg/kg/injection, schedule: Q01DX005 (ip), vehicle: saline with Tween-80 112 % of control | [11] 112 % of control and 114 % of control | [12] 112 % of control

[CH3][Sb]([CH3])[O][Sb]([CH3])[CH3]
inactive: [4] 110 % of control | [5] 111 % of control | [6] 107 % of control

CCCCOC(=O)c1ccccn1
inactive: [7] 95 % of control | [8] 100 % of control | [9] 95 % of control

CCCCCCCCCCCCSC(SCCCCCCCCCCCC)c1ccc(OCC(=O)O)cc1
inactive: dose: 25.0 mg/kg/injection, schedule: Q04DX003 (ip), vehicle: DMSO 96 % of control | dose: 50.0 mg/kg/injection, schedule: Q04DX003 (ip), vehicle: DMSO 91 % of control | dose: 100.0 mg/kg/injection, schedule: Q04DX003 (ip), vehicle: DMSO 94 % of control | dose: 200.0 mg/kg/injection, schedule: Q04DX003 (ip), vehicle: DMSO 91 % of control

C=C(Cl)CNc1ccccc1C(=O)OC
inactive: dose: 25.0 mg/kg/injection, schedule: Q04DX003 (ip), vehicle: Klucel (hydroxypropylcellulose) (HPC) 100 % of control | dose: 50.0 mg/kg/injection, schedule: Q04DX003 (ip), vehicle: Klucel (hydroxypropylcellulose) (HPC) 100 % of control and 103 % of control | [1] 100 % of control and 110 % of control | [2] 103 % of control and 106 % of control | [3] 100 % of control and 108 % of control

COc1ccc(C2CC(c3cc(C)cc(Br)c3O)=NO2)cc1 (stereo unspecified)
inactive: dose: 100.0 mg/kg/injection, schedule: Q04DX002 (ip), vehicle: saline with Tween-80 93 % of control | dose: 200.0 mg/kg/injection, schedule: Q04DX002 (ip), vehicle: saline with Tween-80 88 % of control | dose: 400.0 mg/kg/injection, schedule: Q04DX002 (ip), vehicle: saline with Tween-80 92 % of control

O=NNc1ncc(Cl)cc1Cl
inactive: dose: 1.56 mg/kg/injection, schedule: Q01DX009 (ip), vehicle: water 106 % of control | dose: 3.12 mg/kg/injection, schedule: Q01DX009 (ip), vehicle: water 101 % of control | dose: 6.0 mg/kg/injection, schedule: Q01DX009 (ip), vehicle: water 118 % of control | dose: 6.25 mg/kg/injection, schedule: Q01DX009 (ip), vehicle: water 107 % of control | dose: 12.5 mg/kg/injection, schedule: Q01DX009 (ip), vehicle: water 111 % of control and 120 % of control | dose: 25.0 mg/kg/injection, schedule: Q01DX009 (ip), vehicle: water 120 % of control

CCOC(=O)C1=CC2CCOC2O1 (stereo unspecified)
inactive: [11] 95 % of control | [12] 95 % of control | [13] 101 % of control

Cc1ccc2nc3c(nc2c1)n(-c1ccccc1)c(=O)n3-c1cccc(Br)c1
inactive: [14] 88 % of control | [15] 91 % of control | [16] 100 % of control

CCCCC(=C=NCCCN(C)C)CC
inactive: [17] 99 % of control | [18] 92 % of control | [19] 101 % of control

CCCCCCCCCCCCCOC(=O)CC(C(=O)OCCCCCCCCCCCCC)S(=O)(=O)O (stereo unspecified)
inactive: [20] 99 % of control | [21] 95 % of control

O=c1[nH]c(Nc2ccccc2)c([N+](=O)[O-])c(=O)[nH]1
inactive: [11] 106 % of control | [12] 107 % of control | [13] 106 % of control

CCCCN(CCCC)CCNC(c1ccc(OC)cc1)c1ccc(OC)cc1
inactive: [14] 98 % of control | [15] 93 % of control | [16] 96 % of control

NC(=O)C1=C2NC(=O)c3ccccc3C2C2=C1CCCC2 (stereo unspecified)
inactive: dose: 12.5 mg/kg/injection, schedule: Q01DX005 (ip), vehicle: Klucel (hydroxypropylcellulose) (HPC) 90 % of control | dose: 25.0 mg/kg/injection, schedule: Q01DX005 (ip), vehicle: Klucel (hydroxypropylcellulose) (HPC) 92 % of control | dose: 50.0 mg/kg/injection, schedule: Q01DX005 (ip), vehicle: Klucel (hydroxypropylcellulose) (HPC) 98 % of control and 105 % of control

NS(=O)(=O)c1ccc(C(=O)O)s1
inactive: [14] 104 % of control | [15] 100 % of control

CCCCCn1cnc2cc(N3CCOCC3)c([N+](=O)[O-])cc2c1=O
inactive: [1] 103 % of control | [2] 96 % of control | [3] 96 % of control

CC1(C)Cc2nn3c(c2C(=O)O1)CC(c1ccccc1)c1ccccc1-3 (stereo unspecified)
inactive: dose: 100.0 mg/kg/injection, schedule: Q01DX001 (ip), vehicle: saline with Tween-80 90 % of control | dose: 200.0 mg/kg/injection, schedule: Q01DX001 (ip), vehicle: saline with Tween-80 89 % of control | dose: 400.0 mg/kg/injection, schedule: Q01DX001 (ip), vehicle: saline with Tween-80 96 % of control

CCCCN(C)N=Nc1ccccc1C(N)=O
inactive: dose: 25.0 mg/kg/injection, schedule: Q01DX009 (ip), vehicle: saline with Tween-80 109 % of control | [22] 118 % of control | [8] 113 % of control | dose: 176.0 mg/kg/injection, schedule: Q04DX003 (ip), vehicle: saline with Tween-80 109 % of control | [9] 109 % of control | dose: 264.0 mg/kg/injection, schedule: Q04DX003 (ip), vehicle: saline with Tween-80 109 % of control | [10] 100 % of control

O=C1C=CC(=O)N1C(=O)NC(NC(=O)N1C(=O)C=CC1=O)c1ccc2c(c1)OCO2
inactive: dose: 25.0 mg/kg/injection, schedule: Q01DX005 (ip), vehicle: saline with Tween-80 102 % of control | [14] 98 % of control | [15] 95 % of control | [16] 102 % of control

c1ccc2c(c1)Sc1ccccc1N2CCCN1CCCC1
inactive: dose: 12.5 mg/kg/injection, schedule: Q01DX009 (ip), vehicle: saline 105 % of control | dose: 25.0 mg/kg/injection, schedule: Q01DX009 (ip), vehicle: saline 104 % of control | dose: 25.0 mg/kg/injection, schedule: Q04DX002 (ip), vehicle: saline 111 % of control | dose: 50.0 mg/kg/injection, schedule: Q01DX009 (ip), vehicle: saline 112 % of control and 120 % of control | dose: 50.0 mg/kg/injection, schedule: Q04DX002 (ip), vehicle: saline 111 % of control | dose: 100.0 mg/kg/injection, schedule: Q04DX002 (ip), vehicle: saline 101 % of control

Cn1c(=O)c2[nH]c(Cc3ccc4c(c3)OCO4)nc2n(C)c1=O
inactive: dose: 1.56 mg/kg/injection, schedule: Q01DX009 (ip), vehicle: Klucel (hydroxypropylcellulose) (HPC) 98 % of control | dose: 3.13 mg/kg/injection, schedule: Q01DX009 (ip), vehicle: Klucel (hydroxypropylcellulose) (HPC) 97 % of control | dose: 6.25 mg/kg/injection, schedule: Q01DX009 (ip), vehicle: Klucel (hydroxypropylcellulose) (HPC) 95 % of control | dose: 12.5 mg/kg/injection, schedule: Q01DX009 (ip), vehicle: Klucel (hydroxypropylcellulose) (HPC) 101 % of control | dose: 25.0 mg/kg/injection, schedule: Q01DX009 (ip), vehicle: Klucel (hydroxypropylcellulose) (HPC) 104 % of control | [20] 87 % of control | [21] 107 % of control | dose: 200.0 mg/kg/injection, schedule: Q01DX009 (ip), vehicle: Klucel (hydroxypropylcellulose) (HPC) 100 % of control

CC(C)(C)N(C/C=C/CN(Cc1ccccc1)Cc1ccccc1)C(C)(C)C
inactive: [22] 87 % of control | dose: 100.0 mg/kg/injection, schedule: Q01DX009 (ip), vehicle: saline with Tween-80 95 % of control

O=c1c(Br)cn(Cc2ccccc2)cc1Br
inactive: [17] 92 % of control | [18] 95 % of control | [19] 90 % of control
